# Measurements: patent US10428104B2, “Substituted nucleoside derivatives useful as anticancer agents” (Pfizer Inc., priority 2015, dated 2019)
# pIC50: −log10 of the molar value.
# Target: PRMT5/MEP50 protein complex (Homo sapiens (Human), UniProt O14744)
# Assay: PRMT5 biochemical assay (3H-SAM methylation of H4(1-21) peptide, filter plate scintillation counting)
# Conditions: PRMT5 enzyme inhibition; 10 nM PRMT5/MEP50 complex, 200 nM H4(1-21) peptide, 1 uM SAM, 25 minute incubation at room temperature
# Protocol: Following dilution, 1 ul was added to an empty 96-well microtiter plate. PRMT5/MEP50 protein complex was combined with H4(1-21) peptide ([…]) in PRMT5 assay buffer (50 mM Tris pH 8.5, 50 mM NaCl, 5 mM MgCl2, 1 mM EDTA, 1 mM TCEP) and 44 ul was added to the microtiter plate containing compound. S-Adenosyl-L-methionine (SAM) was prepared by combining ^3H labelled SAM with unlabelled SAM in PRMT5 assay buffer such that the final SAM concentration was 10 uM and the specific activity was 0.2 uCi/ul. The reaction was initiated by adding 5 ul of SAM stock to the microtiter plate. The final reaction conditions were 10 nM PRMT5/MEP50 complex, 200 nM peptide and 1 uM SAM. Following a 25 minute incubation at room temperature, the reaction was stopped with the addition of 100 uL of 20% TCA. The 3H-peptide product was captured using a 96-well filter plate (MSIPN4B, Millipore) and washed 5 times with PBS buffer. Scintillation fluid (100 ul) was added to the dried filter plate and counted in a liquid scintillation counter. IC50 values were determined by fitting the data to the standard 4-parameter dose response equation using Pfizer proprietary software.
# In the final construct PRMT5 ORF was under control of polyhedrin promoter (polH) while MEP50 ORF was under control of p10 promoter.
# Viruses were generated using standard Bac-to-Bac viral generation protocols (Life Technologies) and amplified to high-titer passage two (P2) stocks. Protein over expression was conducted in exponentially growing Sf21 cells infected at 2×106 with P2 viral stock at MOI=1 of PRMT5-Mep50 dual construct virus and Mep50 construct virus at 1:1 ratio. The co-expression protocol was used to supplement additional Mep50 for FlagPRMT5-Mep50 heterodimer formation. Cells were harvested at 72 h post infection by centrifugation and frozen pellet was stored at −80° C.
# FlagPRMT5-Mep50 complex was purified from cell lysate using Flag affinity chromatography. Cell were lyzed in 50 mM Tris 7.5, 200 mM NaCl, 10% glycerol, 0.25 mM TCEP supplemented with EDTA-free protease inhibitor cocktail (Roche). 1.5 ml of lysis buffer was added per 1 g of frozen pellet. The clarified lysate was obtained by centrifugation of cell lysate at 10,000 g for 1 h at 4 C. 5 ml of Anti-FLAG M2 Agarose (Sigma) […] was added to the clarified lysate to isolate FlagPRMT5-Mep50. Following batch binding for 3 h at 4 C, Flag resin bound to FlagPRMT5-Mep50 washed with 20 column volumes (CV) of 50 mM Tris 7.5, 200 mM NaCl, 10% glycerol, 0.25 mM TCEP followed by elution of FlagPRMT5-Mep50 complex using 3 CV of 50 mM Tris 7.5, 200 mM NaCl, 10% glycerol, 0.25 mM TCEP supplemented with 200 ug/ml of FLAG Peptide ([…]). […] Peak fractions containing FlagPRMT5-Mep50 complex were concentrated to 1.6 mg/ml, flash frozen in small aliquots using liquid nitrogen and stored at −80° C.
# PRMT5/MEP50 protein complex, sequence (O14744 other isoform, or with tags, fused parts or gaps): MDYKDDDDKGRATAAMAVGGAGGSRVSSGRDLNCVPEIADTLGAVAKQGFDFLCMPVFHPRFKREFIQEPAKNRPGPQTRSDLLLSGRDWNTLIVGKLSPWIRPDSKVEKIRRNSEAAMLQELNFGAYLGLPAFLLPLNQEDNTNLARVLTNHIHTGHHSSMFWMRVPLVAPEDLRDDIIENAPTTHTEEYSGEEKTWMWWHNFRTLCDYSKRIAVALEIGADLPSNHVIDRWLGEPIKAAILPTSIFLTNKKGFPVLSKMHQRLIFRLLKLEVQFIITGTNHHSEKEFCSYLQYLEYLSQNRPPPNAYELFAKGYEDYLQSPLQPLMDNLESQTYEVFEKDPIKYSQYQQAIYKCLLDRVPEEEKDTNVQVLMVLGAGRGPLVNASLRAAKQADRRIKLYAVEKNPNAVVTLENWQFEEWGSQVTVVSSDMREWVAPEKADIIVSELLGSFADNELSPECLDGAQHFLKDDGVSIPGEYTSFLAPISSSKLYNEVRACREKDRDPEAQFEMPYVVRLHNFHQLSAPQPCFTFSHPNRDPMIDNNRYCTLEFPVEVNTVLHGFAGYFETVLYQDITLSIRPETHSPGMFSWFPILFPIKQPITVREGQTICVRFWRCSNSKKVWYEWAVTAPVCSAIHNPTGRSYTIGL
# PRMT5/MEP50 protein complex, sequence (Q9BQA1 whole entry partner): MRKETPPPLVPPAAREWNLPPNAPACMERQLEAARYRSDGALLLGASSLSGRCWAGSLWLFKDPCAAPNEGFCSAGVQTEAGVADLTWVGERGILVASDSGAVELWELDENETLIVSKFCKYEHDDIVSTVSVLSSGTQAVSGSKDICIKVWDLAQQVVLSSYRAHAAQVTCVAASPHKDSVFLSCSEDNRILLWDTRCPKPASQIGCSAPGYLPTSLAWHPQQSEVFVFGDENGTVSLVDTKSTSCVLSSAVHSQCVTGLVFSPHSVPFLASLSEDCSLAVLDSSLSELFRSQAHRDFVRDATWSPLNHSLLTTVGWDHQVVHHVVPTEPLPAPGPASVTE
row,Compound,pIC50
1,"Cc1ncnc2c1ccn2[C@@H]1O[C@H]([C@@H](O)C2CCCC2)[C@@H](O)[C@H]1O [Example 43, (2R,3S,4R,5R)-2-((S)-cyclopentyl(hydroxy)methyl)-5-(4-methyl-7H-pyrrolo[2,3-d]pyrimidin-7-yl)tetrahydrofuran-3,4-diol]",4.13
2,"Cc1ncnc2c1ccn2[C@@H]1O[C@H]([C@H](C)O)[C@@H](O)[C@H]1O [Example 45, (2R,3S,4R,5R)-2-((S)-1-hydroxyethyl)-5-(4-methyl-7H-pyrrolo[2,3-d]pyrimidin-7-yl)tetrahydrofuran-3,4-diol]",5.76
3,"Cc1ncnc2c1ccn2[C@@H]1O[C@H]([C@H](O)C2CC2)[C@@H](O)[C@H]1O [Example 46, (2R,3S,4R,5R)-2-((R)-cyclopropyl(hydroxy)methyl)-5-(4-methyl-7H-pyrrolo[2,3-d]pyrimidin-7-yl)tetrahydrofuran-3,4-diol]",6.44
4,"Cc1ncnc2c1ccn2[C@@H]1O[C@H]([C@@H](O)C2CC2)[C@@H](O)[C@H]1O [Example 47, (2R,3S,4R,5R)-2-((S)-cyclopropyl(hydroxy)methyl)-5-(4-methyl-7H-pyrrolo[2,3-d]pyrimidin-7-yl)tetrahydrofuran-3,4-diol]",4.81
5,"Cc1ncnc2c1ccn2[C@@H]1O[C@H]([C@H](O)C(C)C)[C@@H](O)[C@H]1O [Example 48, (2R,3S,4R,5R)-2-((R)-1-hydroxy-2-methylpropyl)-5-(4-methyl-7H-pyrrolo[2,3-d]pyrimidin-7-yl)tetrahydrofuran-3,4-diol]",6.29
6,"Cc1ncnc2c1ccn2[C@@H]1O[C@H]([C@@H](O)C(C)C)[C@@H](O)[C@H]1O [Example 49, (2R,3S,4R,5R)-2-((S)-1-hydroxy-2-methylpropyl)-5-(4-methyl-7H-pyrrolo[2,3-d]pyrimidin-7-yl)tetrahydrofuran-3,4-diol]",4.43
7,"Cc1ncnc2c1ccn2[C@@H]1O[C@H]([C@H](O)C2CCC2)[C@@H](O)[C@H]1O [Example 52, (2R,3S,4R,5R)-2-((R)-cyclobutyl(hydroxy)methyl)-5-(4-methyl-7H-pyrrolo[2,3-d]pyrimidin-7-yl)tetrahydrofuran-3,4-diol]",5.90
8,"Cc1ncnc2c1ccn2[C@@H]1O[C@H]([C@@H](O)C2CCC2)[C@@H](O)[C@H]1O [Example 53, (2R,3S,4R,5R)-2-((S)-cyclobutyl(hydroxy)methyl)-5-(4-methyl-7H-pyrrolo[2,3-d]pyrimidin-7-yl)tetrahydrofuran-3,4-diol]",5.03
9,"Cc1ncnc2c1ccn2[C@@H]1O[C@H]([C@H](O)C(F)(F)F)[C@@H](O)[C@H]1O [Example 56, (2R,3R,4S,5S)-2-(4-methyl-7H-pyrrolo[2,3-d]pyrimidin-7-yl)-5-((S)-2,2,2-trifluoro-1-hydroxyethyl)tetrahydrofuran-3,4-diol]",7.96
10,"Cc1ncnc2c1ccn2[C@@H]1O[C@H]([C@@H](O)C(F)(F)F)[C@@H](O)[C@H]1O [Example 57, (2R,3R,4S,5S)-2-(4-methyl-7H-pyrrolo[2,3-d]pyrimidin-7-yl)-5-((R)-2,2,2-trifluoro-1-hydroxyethyl)tetrahydrofuran-3,4-diol]",5.20
11,"Cc1ncnc2c1ccn2[C@@H]1O[C@H](Cn2cccn2)[C@@H](O)[C@H]1O [Example 58, (2R,3S,4R,5R)-2-((1H-pyrazol-1-yl)methyl)-5-(4-methyl-7H-pyrrolo[2,3-d]pyrimidin-7-yl)tetrahydrofuran-3,4-diol]",5.70
12,"Cc1ncnc2c1ccn2[C@@H]1O[C@@H](c2ccccc2)[C@@H](O)[C@H]1O [Example 66, (2R,3R,4S,5S)-2-(4-methyl-7H-pyrrolo[2,3-d]pyrimidin-7-yl)-5-phenyltetrahydrofuran-3,4-diol]",5.70
13,"Nc1ncnc2c1c(F)cn2[C@@H]1O[C@@H](c2ccccc2)[C@@H](O)[C@H]1O [Example 67, (2R,3R,4S,5S)-2-(4-amino-5-fluoro-7H-pyrrolo[2,3-d]pyrimidin-7-yl)-5-phenyltetrahydrofuran-3,4-diol]",5.81
14,"Cc1nc(N)nc2c1ccn2[C@@H]1O[C@@H](c2ccccc2)[C@@H](O)[C@H]1O [Example 68, (2R,3R,4S,5S)-2-(2-amino-4-methyl-7H-pyrrolo[2,3-d]pyrimidin-7-yl)-5-phenyltetrahydrofuran-3,4-diol]",5.26
15,"Cc1ncnc2c1ccn2[C@@H]1O[C@@H](c2cnco2)[C@@H](O)[C@H]1O [Example 69, (2R,3R,4S,5R)-2-(4-methyl-7H-pyrrolo[2,3-d]pyrimidin-7-yl)-5-(oxazol-5-yl)tetrahydrofuran-3,4-diol]",5.98
16,"Cc1ncnc2c1ccn2[C@@H]1O[C@@H](CO)[C@@H](O)[C@H]1O [Example 71, (2S,3S,4R,5R)-2-(hydroxymethyl)-5-(4-methyl-7H-pyrrolo[2,3-d]pyrimidin-7-yl)tetrahydrofuran-3,4-diol]",7.28
17,"Cc1ncnc2c1ccn2[C@@H]1O[C@@H](c2ccn[nH]2)[C@@H](O)[C@H]1O [Example 72, (2R,3R,4S,5S)-2-(4-methyl-7H-pyrrolo[2,3-d]pyrimidin-7-yl)-5-(1H-pyrazol-5-yl)tetrahydrofuran-3,4-diol]",5.69

# Further lines, results first:
row,pIC50,Compound
1,7.62,"Cc1ncnc2c1ccn2[C@@H]1O[C@H]([C@H](O)c2ccco2)[C@@H](O)[C@H]1O [Example 54, (2S,3S,4R,5R)-2-((S)-furan-2-yl(hydroxy)methyl)-5-(4-methyl-7H-pyrrolo[2,3-d]pyrimidin-7-yl)tetrahydrofuran-3,4-diol]"
2,5.32,"Cc1ncnc2c1ccn2[C@@H]1O[C@H]([C@@H](O)c2ccco2)[C@@H](O)[C@H]1O [Example 55, (2S,3S,4R,5R)-2-((R)-furan-2-yl(hydroxy)methyl)-5-(4-methyl-7H-pyrrolo[2,3-d]pyrimidin-7-yl)tetrahydrofuran-3,4-diol]"
3,6.31,"Cc1ncnc2c1ccn2[C@@H]1OC(C(F)(F)c2ccc(F)cc2)[C@@H](O)[C@H]1O (stereo partly drawn) [Example 59, (3S,4R,5R)-2-(difluoro(4-fluorophenyl)methyl)-5-(4-methyl-7H-pyrrolo[2,3-d]pyrimidin-7-yl)tetrahydrofuran-3,4-diol]"
4,6.31,"Cc1nc(N)nc2c1ccn2[C@@H]1O[C@H]([C@@H](O)c2ccc(F)cc2)[C@@H](O)[C@H]1O [Example 65, (2R,3R,4S,5R)-2-(2-amino-4-methyl-7H-pyrrolo[2,3-d]pyrimidin-7-yl)-5-((S)-(4-fluorophenyl)(hydroxy)methyl)tetrahydrofuran-3,4-diol]"
5,7.30,"Cc1ncnc2c1ccn2[C@@H]1O[C@@H]([C@@H](C)O)[C@@H](O)[C@H]1O [Example 70, (2S,3S,4R,5R)-2-((R)-1-hydroxyethyl)-5-(4-methyl-7H-pyrrolo[2,3-d]pyrimidin-7-yl)tetrahydrofuran-3,4-diol]"
6,4.63,"Cc1ncnc2c1ccn2[C@@H]1O[C@@H]([C@@H](O)c2ccccc2)[C@@H](O)[C@H]1O [Example 73, (2S,3S,4R,5R)-2-((S)-hydroxy(phenyl)methyl)-5-(4-methyl-7H-pyrrolo[2,3-d]pyrimidin-7-yl)tetrahydrofuran-3,4-diol]"
7,5.50,"Cc1ncnc2c1ccn2[C@@H]1O[C@@H]([C@H](O)c2ccccc2)[C@@H](O)[C@H]1O [Example 74, (2S,3S,4R,5R)-2-((R)-hydroxy(phenyl)methyl)-5-(4-methyl-7H-pyrrolo[2,3-d]pyrimidin-7-yl)tetrahydrofuran-3,4-diol]"
8,4.66,"Cc1ncnc2c1ccn2[C@@H]1O[C@@H]([C@@H](O)c2ccc(F)cc2)[C@@H](O)[C@H]1O [Example 75, (2S,3S,4R,5R)-2-((S)-(4-fluorophenyl)(hydroxy)methyl)-5-(4-methyl-7H-pyrrolo[2,3-d]pyrimidin-7-yl)tetrahydrofuran-3,4-diol]"
9,5.74,"Cc1ncnc2c1ccn2[C@@H]1O[C@@H]([C@H](O)c2ccc(F)cc2)[C@@H](O)[C@H]1O [Example 76, (2S,3S,4R,5R)-2-((R)-(4-fluorophenyl)(hydroxy)methyl)-5-(4-methyl-7H-pyrrolo[2,3-d]pyrimidin-7-yl)tetrahydrofuran-3,4-diol]"
